# According to US8685924B2, “Preventives/remedies for stress urinary incontinence and method of screening the same” (Takeda Pharmaceutical Company Limited, priority 2004, dated 2014):
# Legend:
# Type in all cases: in vivo, rat
# [1] = tested on: urethane-anesthetized female rats; assay: Leak point pressure by abdominal wall electrostimulation, rats with nerve to iliococcygeus/pubococcygeus muscle transected on one side (Example 2); conditions: for leak point pressure after drug administration / leak point pressure increase / leak point pressure before drug administration: i.v., mean ± SEM; for leak point pressure before drug administration: baseline
# Protocol: SD female rats (body weight 180-350 g) were anesthetized with urethane (Wako Pure Chemical Industries, Ltd.), and the spinal cord was cut at T8-9 level to eliminate the reflex voiding. In addition, the nerve to the iliococcygeus muscle/pubococcygeus muscle on the one side was transected. During operation, halothane (Takeda Pharmaceutical Company Limited) anesthesia was added when necessary. A catheter (PE-90, Clay Adams) was inserted into the bladder and secured with a ligature, and the incised part of each of the abdominal muscle and skin was closed with sutures. The abdominal skin near the diaphragm was incised at two left and right positions to newly expose the abdominal muscle. An Evans Blue dye (Merck) solution was injected into the bladder, and the bladder volume was adjusted to 0.2-0.3 ml. The bladder catheter was connected to a pressure transducer, and the signals of the transducer were sent to a computer via an amplifier (blood pressure amplification unit AP-641G; NIHON KOHDEN) and an analog-to-digital converter (BIOPAC; MP100), and recorded on a hard disc. The data were analyzed on a computer using software (BIOPAC; AcqKnowledge). The exposed abdominal muscle was electrostimulated using an electrostimulator (SEN-3301; NIHON KODEN) and an isolator (SS-202J; NIHON KODEN), and the presence or absence of incontinence from the urethral orifice was observed. The electrostimulation was applied at a voltage of 3-50 V, duration of 0.05-0.5 milisec, and frequency 50 Hz for 1 sec, thereby gradually increasing the intravesical pressure. The peak intravesical pressure during stimulation of the abdominal wall was measured and, of the trials with observed incontinence, the lowest peak intravesical pressure was defined as the leak point pressure. The leak point pressure was compared before and after the duloxetine and midodrine administration. Duloxetine was dissolved in […] (DMA)/polyethylene glycol 400 (PEG400) (1:1), and intravenously administered at 0.5 ml/kg. Midodrine (hydrochloride, Sigma) was dissolved in saline and intravenously administered at 1 ml/kg.
# [2] = tested on: urethane-anesthetized female rats; assay: Leak point pressure by abdominal wall-electrically stimulating method, serotonin 5-HT receptor agonists (Example 3); conditions: for leak point pressure after drug administration / leak point pressure increase / leak point pressure before drug administration: i.v., mean ± SEM; for leak point pressure before drug administration: baseline
# Summary of the method: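 Urethane-anesthetized SD female rats with T8-9 spinal transection and unilateral iliococcygeus/pubococcygeus nerve cut; abdominal wall stimulated (2.5-50 V, 0.5 ms, 50 Hz, 1 s) and lowest peak bladder pressure giving leakage taken as leak point pressure, before vs after i.v. agonist. Antagonists RS-102221 or SB221284 (DMA/PEG400, 0.5 ml/kg i.v.) given 5 min before WAY-161503 or WAY-163909.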
# [3] = tested on: urethane-anesthetized female rats; assay: Antagonism of the leak point pressure increase by WAY-161503 / WAY-163909, abdominal wall-electrically stimulating method (Example 3); conditions: agonist 0.3 mg/kg, i.v., antagonist: solvent, mean ± SEM
# Protocol: SD female rats (body weight 180-350 g) were anesthetized with urethane (Wako Pure Chemical Industries, Ltd.), and the spinal cord was transected at T8-9 level to eliminate the reflex voiding. In addition, the nerve to the iliococcygeus muscle/pubococcygeus muscle on the one side was transected. During operation, halothane (Takeda Pharmaceutical Company Limited) anesthesia was added when necessary. A catheter (PE-90, Clay Adams) was inserted into the bladder and secured with a ligature, and the incised part of each of the abdominal muscle and skin was closed with sutures. The abdominal skin near the diaphragm was incised at two left and right positions to newly expose the abdominal muscle. An Evans Blue dye (Merck) solution was injected into the bladder, and the bladder volume was adjusted to 0.2-0.3 ml. The bladder catheter was connected to a pressure transducer, and the signals of the transducer were sent to a computer via an amplifier (blood pressure amplification unit AP-641G; NIHON KOHDEN) and an analog-to-digital converter (BIOPAC; MP100), and recorded on a hard disc. The data were analyzed on a computer using software (BIOPAC; AcqKnowledge). The exposed abdominal muscle was electrostimulated using an electrostimulator (SEN-3301; NIHON KODEN) and an isolator (SS-202J; NIHON KODEN), and the presence or absence of incontinence from the meatus urethra was observed. The electrostimulation was applied at a voltage of 2.5-50 V, duration of 0.5 milisec, and frequency 50 Hz for 1 sec, thereby gradually increasing the intravesical pressure. The peak intravesical pressure during stimulation of the abdominal wall was measured and, of the trials with observed incontinence, the lowest peak intravesical pressure was defined as the leak point pressure. Serotonin 5-HT receptor agonist, WAY-161503 (5-HT2C receptor agonist), WAY-163909 (5-HT2C receptor agonist), DOI (5-HT2A/2B/2C receptor agonist), mCPP (5-HT2B/2C receptor partial agonist), eltoprazine (5-HT1A/1B/2C receptor partial agonist), 8-OH-DPAT (5-HT1A receptor agonist), sumatryptan (5-HT1B/1D receptor agonist) and BW723C86 (5-HT2B receptor agonist) were intravenously administered, and the leak point pressure was compared before and after the administration. DOI, mCPP and eltoprazine were dissolved in saline, and other drugs were dissolved in DMA/PEG400 (1:1), and they were intravenously administered at 1 ml/kg and 0.5 mg/kg, respectively. Depending on the experiment, RS-102221 (serotonin 5-HT2C receptor antagonist) or SB221284 (serotonin 5-HT2B/2C receptor antagonist) was intravenously administered 5 min before WAY-161503 or WAY-163909 administration, and an antagonistic effect against the WAY-161503 or WAY-163909-induced increment of the leak point pressure was examined. RS-102221 and SB221284 were both dissolved in DMA/PEG400 (1:1) and intravenously administered at 0.5 ml/kg.
structure (smiles),measurement,setting,value
CNCC[C@H](Oc1cccc2ccccc12)c1cccs1 [duloxetine],leak point pressure after drug administration,[1]; 0.3 mg/kg,48.3 ± 7.9 cmH2O
same,leak point pressure increase,[1]; 0.3 mg/kg,2.4 ± 4.3 cmH2O
same,leak point pressure after drug administration,[1]; 1 mg/kg,53.0 ± 4.8 cmH2O
same,leak point pressure increase,[1]; 1 mg/kg,8.1 ± 2.3 cmH2O
same,leak point pressure after drug administration,[1]; 3 mg/kg,61.4 ± 3.9 cmH2O
same,leak point pressure increase,[1]; 3 mg/kg,12.9 ± 3.2 cmH2O
same,leak point pressure after drug administration,[1]; 10 mg/kg,53.0 ± 8.8 cmH2O
same,leak point pressure increase,[1]; 10 mg/kg,13.0 ± 2.5 cmH2O
same,leak point pressure before drug administration,[1]; dose group 0.3 mg/kg,45.9 ± 5.4 cmH2O
same,leak point pressure before drug administration,[1]; dose group 1 mg/kg,44.9 ± 5.9 cmH2O
same,leak point pressure before drug administration,[1]; dose group 3 mg/kg,48.5 ± 4.8 cmH2O
same,leak point pressure before drug administration,[1]; dose group 10 mg/kg,40.0 ± 7.3 cmH2O
same,"effect on leak point pressure, comparison before and after administration",[1]; intravenously administered,significant increase in the leak point pressure
O=C1Nc2cc(Cl)c(Cl)cc2N2CCNCC12 (stereo not drawn) [WAY-161503],leak point pressure after drug administration,[2]; 0.03 mg/kg,58.7 ± 6.8 cmH2O
same,leak point pressure increase,[2]; 0.03 mg/kg,9.7 ± 2.9 cmH2O
same,leak point pressure after drug administration,[2]; 0.1 mg/kg,59.5 ± 4.9 cmH2O
same,leak point pressure increase,[2]; 0.1 mg/kg,12.6 ± 2.8 cmH2O
same,leak point pressure after drug administration,[2]; 0.3 mg/kg,68.1 ± 6.8 cmH2O
same,leak point pressure increase,[2]; 0.3 mg/kg,19.6 ± 4.4 cmH2O
same,leak point pressure after drug administration,[2]; 1 mg/kg,80.1 ± 2.7 cmH2O
same,leak point pressure increase,[2]; 1 mg/kg,30.7 ± 3.5 cmH2O
same,leak point pressure before drug administration,[2]; dose group 0.03 mg/kg,49.0 ± 8.0 cmH2O
same,leak point pressure before drug administration,[2]; dose group 0.1 mg/kg,46.9 ± 4.6 cmH2O
same,leak point pressure before drug administration,[2]; dose group 0.3 mg/kg,48.5 ± 5.2 cmH2O
same,leak point pressure before drug administration,[2]; dose group 1 mg/kg,49.4 ± 1.4 cmH2O
same,dose at which a significant effect on the leak point pressure was afforded,[2]; intravenous administration,not less than 0.03 mg/kg
same,effect on leak point pressure,[2]; intravenous administration,dose-dependently increased the leak point pressure
same,leak point pressure after drug administration,[3],76.6 ± 5.4 cmH2O
same,leak point pressure increase,[3],27.8 ± 2.8 cmH2O
same,leak point pressure before drug administration,[3]; baseline,48.7 ± 5.3 cmH2O
